Each structure is given as a SMILES string.

One experiment deals with Scarb1-/-DCs. Kind of experiment: BMDCs from Scarb1-/- versus wild-type mice. Type of experiment: cell-based, mouse. From the text: VitE can enter enterocytes via the SCARB1 receptor, and SCARB1 facilitates the uptake of cholesteryl esters from high-density lipoproteins. […] To determine whether SCARB1 is required for VitE-induced DC activation, we generated BMDCs from Scarb1-/-versus wild-type mice. […] Taken together, VitE enters DCs via SCARB1 and binds SHP1 to inhibit pSHP1, leading to DC activation, which increases antitumor T-cell immunity (data not shown; see Yuan et al. 2022, FIG. 4I; see also U.S. Provisional Application No. 63/252,721, FIG. 4D).

In a further experiment the test system is cancer patients. The experiment is described as follows: Retrospective analysis of electronic health records of cancer patients receiving ICT (anti-PD-1/PD-L1). Type of experiment: in vivo, human. From the text:
FIG. 1A: Percentages of deceased cancer patients taking dietary nutritional supplements during ICT treatment (Anti-PD-1/PDL1: Pembrolizumab/Atezolizumab) (n=7,667 including 1,888 breast cancer patients, 2,715 melanoma patients, and 3,064 prostate cancer patients). Each bar represents a group of patients who took one type of nutritional supplement along with ICT (Red dashed line indicated the median percentage of deceased cancer patients in this study). […] FIGS. 1C-1D: Tumor growth curves of orthotopic EMT6 TNBC tumor-bearing Balb/c mice (FIG. 1C, n=5) and orthotopic B16-GMCSF melanoma tumor-bearing C57BL/6 mice (FIG. 1D, left, n=5) treated with vehicle, 50 mg/kg of Vitamin E (VitE), […] anti-PDI (ICT), or Vitamin E+anti-PD1 (VitE+ICT) (n=5). Flow cytometry quantification of Granzyme B^+CD8^+ T cells in tumor tissues at 20 days post-implantation (FIG. 1D. right, n=5). FIG. 1E: Tumor growth curves of orthotopic B16-F10 melanoma tumor-bearing C57BL/6 mice with the indicated treatments (n=5). FIG. 1F: Tumor growth curves of orthotopic B16-FLT3L melanoma tumor-bearing C57BL/6 mice with the indicated treatments (n=5). […]
We retrospectively analyzed electronic health records for the clinical outcomes of cancer patients receiving ICT immunotherapies (anti-PD-1/PD-L1). […]

In the next experiment the test system is human IFN-γ+CD8+ T cells. The experiment is described as follows: Coculture of human MoDCs with autologous T cells. The experiment is classed as cell-based. The conditions noted are these: VitE-treated vs vehicle-treated autologous MoDCs. As for the experimental part: FIG. 2A: Percentage of human IFN-γ^+CD8^+ T cells in CD8^+ T cells in coculture with vehicle or VitE-treated autologous MoDCs (n=3). FIG. 2B: Representative flow cytometric analysis and quantification of antigen-specific OT-1 T cell proliferation stimulated with OVA-loaded mouse BMDCs that were treated with vehicle or VitE at day 3. FIG. 2C: Tumor growth curves of orthotopic EMT6 tumor-bearing mice treated with vehicle (Ctrl), Vitamin E (VitE), or VitE plus Cyt c (10 mg/kg. i.v, every other day starting on day 3) to deplete DCs (n=8/group). The statistical significance is defined by P-value: *P<0.05, **P<0.01, ***P<0.001. ****P<0.0001. Human leukocyte concentrate (buffy coat) was collected from healthy blood donor volunteers by MD Anderson Blood Donor Center. Written informed consent was obtained from all participating blood donors and the use of anonymized leftover specimens for scientific purposes was approved by the Ethics Committee of the MD Anderson Cancer Center. For the generation of monocyte-derived dendritic cells (MoDCs), peripheral blood of healthy individuals was applied to a Ficoll gradient (BD), and mononuclear cells were freshly isolated and cultured in the dish in a humidified incubator for 1 hour to let monocytes adhere. After removing the medium with non-adherent cells, the adherent monocytes were collected through vigorous pipetting. […]

The next experiment relates to human iPSC-DCs. Kind of experiment: Activation of human iPSC-derived DCs by flow cytometry. Conditions: vitamin E 50 μg/ml or TPI-1 1 μg/ml, 72 h, gated on CD11c+. The experiment is classed as cell-based. From the text: FIG. 10A: Representative high magnification photomicrographs (100×, 200×, 400×) illustrating the morphology of colonies and individual cells of fully differentiated iPSC-derived DCs (iPSC-DCs) displaying characteristic DC morphology consisting of protrusions and veils of cytoplasm at the end of the differentiation procedure (day 23) after using the differentiation protocol for the addition and withdrawal of growth factors and cytokines. FIG. 10B: Phenotypic characterization of generated human iPSC-DCs. Representative flow cytometry analysis depicting the expression of DC lineage markers by iPSC-DCs gated on the CD11c+ population. Levels of expression of individual markers are shown as red histograms, while non-specific staining by isotype controls is shown as light blue histograms. FIG. 10C: Phenotypic characterization of human iPSC-DCs after treatment with vitamin E or TPI-1 to inhibit SHP1. Representative flow cytometry analysis (left panel) and quantification (right panel) depicting the expression of indicated activity markers by iPSC-DCs gated on the CD11c+population with the treatment of vehicle, vitamin E (50 μg/ml) or TPI-1 (1 μg/ml) for 72 h.
We explored the feasibility of differentiating populations of primary DCs from iPSCs and characterized the phenotype of iPSC-DC with the pharmacological inhibition of SHP1 by vitamin E or TPI-1. […]
For orientation: A flow cytometer gives signals particle by particle.

In the case of `Cc1c(C)c2c(c(C)c1O)CC[C@@](C)(CCC[C@H](C)CCC[C@H](C)CCCC(C)C)O2` [VitE, D-α-Tocopherol], the “pY564-SHP1 in Scarb1-/- DCs” value in the experiment on Scarb1-/-DCs (VitE treatment, unlike wild-type DCs) is on record as “failed to inhibit pY564-SHP1”. In the experiment with Scarb1-/-DCs (VitE-treated Scarb1-/- DCs, in contrast to wild-type DCs), the “proliferation of cocultured T cells” value is “did not induce proliferation of cocultured T cells”. Moreover, the “survival rate of cancer patients” value in the experiment on cancer patients (VitE during anti-PD-1/PD-L1 treatment vs any of 14 other dietary or nutritional supplements) is given as “significantly improved survival rate”. Besides, the “Percentages of deceased cancer patients” value in the experiment with cancer patients (took VitE during anti-PD-1/PD-L1 treatment (n=83), patients who did not 21.2% (n=7,574), Fisher P 0.0027) was found to be 8.4%. In addition, the “IFNγ+CD8+ T cells in coculture” value with human IFN-γ+CD8+ T cells was “increased autologous IFNγ+CD8+ cytotoxic T cells”. For the same compound, the “expression of DC activation markers on iPSC-DCs” value in the experiment with human iPSC-DCs is “increased expression of DC activation markers CD40 and CD86”.

Source of the values: patent US20240424019A1, “SHP1 MODIFIED DENDRITIC CELLS AND EXTRACELLULAR VESICLES DERIVED THEREFROM AND ASSOCIATED METHODS” (BOARD OF REGENTS, THE UNIVERSITY OF TEXAS SYSTEM, priority 2021, published 2024).
